Tested on: human myeloma cell line MM.1S
Experiment: SILAC acetylated-lysine peptide profiling, HDAC inhibitor vs DMSO (light/heavy ratio)
Type: cell-based
Source text: An embodiment of the invention comprises utilizing the SILAC method in order to quantitate changes in protein expression between two or more populations of cells. The SILAC method is a technique based on mass spectrometry that detects differences in protein abundance among samples using non-radioactive isotopic labeling. The SILAC method is known in the art, and described in detail in Ong et al., “Stable Isotope Labeling by Amino Acids in Cell Culture, SILAC, as a Simple and Accurate Approach to Expression Proteomics”, Molecular & Cellular Proteomics, vol. 1, pp. 376-386 (2002), which is incorporated herein by reference in its entirety.
Briefly, the SILAC method involves growing two populations of cells in cell culture. The first population of cells is grown in growth media containing normal amino acids (“normal media”). The second population of cells is grown in media lacking a standard essential amino acid (such as lysine), but is then supplemented with a non-radioactive, isotopically labeled form of that essential amino acid (such as lysine labeled with ^13C atoms, rather than normal ^12C atoms), which is called “heavy media”. When the two populations of cells are each growing in the medium, they incorporate the amino acids into all of their proteins. The growth of cells maintained in the heavy media is no different from that in normal media. All peptides containing the heavy amino acids are heavier than their normal counterparts. The cells from each of the two populations of cells are lysed. The lysates from each of the two cell populations are then combined. The combined cell lysates are then analyzed by mass spectrometry. Pairs of chemically identical peptides of different stable isotope composition can be differentiated in a mass spectrometer due to their difference in mass. The ratio of peak intensities in the mass spectrum for such peptide pairs reflects the abundance ratio for the two proteins.
This example describes SILAC studies that were performed to compare the effects of three different HDAC inhibitors (Compound A, Compound B, and tubastatin A) to a control on a human multiple myeloma cell line. The HDAC inhibitors were also compared amongst themselves to determine differences in their effects.
A human myeloma cell line MM.1S was grown using either ^12C (light) or ^13C (heavy) lysine containing culture medium. The “heavy” cells were treated with DMSO as the control, and the “light” cells were treated with a single HDAC inhibitor at 37° C. for 6 hours. The heavy and light cells were lysed, and the lysates were mixed in 1:1 ratio and digested with the protease trypsin. The acetylated lysine containing peptides (due to the action of the HDAC inhibitor) in the digested peptide pool were captured by a non-specific anti-acetylated lysine antibody cocktail (the antibodies identify both light and heavy acetylated peptides), and subjected to mass spectrometry analysis in order to identify thousands of individual peptides.
Thousands of peptides were identified in pairs (^12C and ^13C) due to their known mass differences. The amino acid sequence and quantitative ratio (Light/Heavy) of a given peptide in two differentially treated cell lysates were then determined and annotated with their possible protein (gene) sources.
As stated above, three HDAC inhibitors (Compound A, Compound B, and Tubastatin A) were used. Thus, the SILAC method was performed three times, with a different HDAC inhibitor compared to a control each time. Accordingly, there are three pairs of quantitative data in the table below, i.e., Compound A:DMSO, Compound B:DMSO, and Tubastatin A:DMSO. A cut-off of 1.30 fold of change (increase or decrease) was then used to determine “changed” or “+” in the table, and any peptides with a fold of change less than 1.3 fold were determined to be “unchanged” or “0” in the table. Those peptides that were not identified were marked as “NA” in the table. […]

O=C(NO)c1cnc(NC2(c3cccc(F)c3)CCCCC2)nc1 [Compound B, 2-((1-(3-fluorophenyl)cyclohexyl)amino)-N-hydroxypyrimidine-5-carboxamide]
light to heavy ratio (L/H ratio) of acetylated peptide TACAINK(ac)VLMGR (SEQ ID NO: 584) (Isoform 1 of Protein FAM98A [297], gene FAM98A, inhibitor:DMSO): 0.00 log 2
light to heavy ratio (L/H ratio) of acetylated peptide VLSK(ac)[…] (SEQ ID NO: 294) (Isoform 1 of Protein SET [154], SET, drug:DMSO): 0.00 log 2
light to heavy ratio (L/H ratio) of acetylated peptide […](ac)ALK (SEQ ID NO: 349) (Isoform 1 of RNA-binding protein with serine-rich domain 1 [218], RNPS1, drug:DMSO): −0.46 log 2
light to heavy ratio (L/H ratio), log 2 scale, acetylated peptide […](ac)TDQAQDVK (SEQ ID NO: 765) (Isoform 1 of Signal recognition particle 9 kDa protein [52], gene SRP9, drug:DMSO): 0.00
light to heavy ratio (L/H ratio) of acetylated peptide VLISFK(ac)ANDIEK (SEQ ID NO: 363) (Isoform 2 of Actin-related protein 2/3 complex subunit 5 [90], ARPC5, drug:DMSO): 0.42 log 2
light to heavy ratio (L/H ratio) of acetylated peptide TMSCSDK(ac)ILR (SEQ ID NO: 323) (Isoform 2 of Double-stranded RNA-specific adenosine deaminase [1013], ADAR, drug:DMSO): −0.65 log 2
light to heavy ratio (L/H ratio) of acetylated peptide […](ac)[…] (SEQ ID NO: 336) (Isoform 2 of Fibronectin type-III domain-containing protein 3A [507], FNDC3A, drug:DMSO): 0.40 log 2
light to heavy ratio (L/H ratio) of acetylated peptide K(ac)[…] (SEQ ID NO: 369) (Isoform 2 of Huntingtin-interacting protein K [35], C15orf63, drug:DMSO): 1.00 log 2
light to heavy ratio (L/H ratio) of acetylated peptide GAK(ac)PVVVLQK (SEQ ID NO: 611) (Isoform 2 of Nipped-B-like protein [1000], gene NIPBL, inhibitor:DMSO): 0.00 log 2
light to heavy ratio (L/H ratio) of acetylated peptide LIAGNK(ac)[…] (SEQ ID NO: 512) (Isoform 2 of Nuclear factor related to kappa-B-binding protein [1262], gene NFRKB, inhibitor:DMSO): 0.00 log 2
light to heavy ratio (L/H ratio) of acetylated peptide […](ac)K (SEQ ID NO: 626) (Isoform 2 of Septin-7 [207], gene, inhibitor:DMSO): 0.00 log 2
light to heavy ratio (L/H ratio) of acetylated peptide YQQFK(ac)DFQR (SEQ ID NO: 258) (Isoform 2 of Spliceosome RNA helicase DDX39B [349], SNORD84, DDX39B, drug:DMSO): 0.00 log 2
light to heavy ratio (L/H ratio) of acetylated peptide GLCEK(ac)PLASAAAK (SEQ ID NO: 536) (Isoform 2 of Transportin-3 [513], gene TNPO3, inhibitor:DMSO): 0.00 log 2
light to heavy ratio (L/H ratio), log 2 scale, acetylated peptide LEPLK(ac)PLK (SEQ ID NO: 772) (Isoform 3 of Proline-rich protein 12 [1223], gene PRR12, drug:DMSO): 0.00
light to heavy ratio (L/H ratio) of acetylated peptide […](ac)FLK (SEQ ID NO: 326) (Isoform 5 of Transcriptional regulator ATRX [812], ATRX, drug:DMSO): 0.89 log 2
light to heavy ratio (L/H ratio), log 2 scale, acetylated peptide YNDPIYVK(ac)LEK (SEQ ID NO: 764) (Isoform A of AP-1 complex subunit beta-1 [335], gene AP1B1, drug:DMSO): 0.00
light to heavy ratio (L/H ratio) of acetylated peptide MVAAAK(ac)YAR (SEQ ID NO: 324) (Isoform Heart of ATP synthase subunit gamma mitochondrial [55], ATP5C1, drug:DMSO): −0.80 log 2
light to heavy ratio (L/H ratio) of acetylated peptide VPNDK(ac)YYGAQTVR (SEQ ID NO: 625) (Isoform Mitochondrial of Fumarate hydratase mitochondrial [66], gene FH, inhibitor:DMSO): 0.00 log 2
light to heavy ratio (L/H ratio) of acetylated peptide MMVAGFK(ac)K (SEQ ID NO: 339) (Isoform Short of Heterogeneous nuclear ribonucleoprotein U [524], HNRNPU, drug:DMSO): −0.40 log 2
light to heavy ratio (L/H ratio) of acetylated peptide APQCLGK(ac)FIEIAAR (SEQ ID NO: 338) (Isoform Short of Heterogeneous nuclear ribonucleoprotein U [546], HNRNPU, drug:DMSO): 0.75 log 2
L/H ratio of acetylated peptide (K(ac)GPSVQKR (SEQ ID NO: 413), Isoform 1 of Protein lin-28 homolog B [240], LIN28B): 0.47 log 2
light to heavy ratio (L/H ratio) of acetylated peptide, log 2 scale (K(ac)[…] (SEQ ID NO: 152), Eukaryotic translation initiation factor 5A-2 [68], EIF5A2): 0.00
light to heavy ratio (L/H ratio) of acetylated peptide, log 2 scale (K(ac)[…] (SEQ ID NO: 164), Similar to nonhistone chromosomal protein HMG-1 [30], HMGB1P4): 0.00
light to heavy ratio (L/H ratio) of acetylated peptide, log 2 scale (K(ac)[…] (SEQ ID NO: 246), Endoplasmin [270], HSP90B1): 0.00
L/H ratio of acetylated peptide (K(ac)[…] (SEQ ID NO: 373), T-complex protein 1 subunit zeta [280], CCT6A): 0.67 log 2
L/H ratio of acetylated peptide (KDFIK(ac)TTVK (SEQ ID NO: 388), Protein DEK [367], DEK): 0.38 log 2
L/H ratio of acetylated peptide (KK(ac)FLCVTK (SEQ ID NO: 411), Kelch repeat and BTB domain-containing protein 8 [178], KBTBD8): 1.00 log 2
light to heavy ratio (L/H ratio) of acetylated peptide, log 2 scale (KLPK(ac)[…] (SEQ ID NO: 198), Ras-related protein Rab-5C [184], RAB5C): 0.00
L/H ratio of acetylated peptide (KPEENPASK(ac)FSSASK (SEQ ID NO: 391), Eukaryotic translation initiation factor 4B [586], EIF4B): 0.53 log 2
L/H ratio of acetylated peptide (KSEDTISK(ac)MNDFMR (SEQ ID NO: 409), Isoform 1 of Gamma-interferon-inducible protein 16 [451], IFI16): −0.57 log 2
light to heavy ratio (L/H ratio) of acetylated peptide, log 2 scale (KTPCGEGSK(ac)TWDR (SEQ ID NO: 245), 40S ribosomal protein S20 [75], SNORD54, RPS20): 0.00
light to heavy ratio (L/H ratio) of acetylated peptide IVADK(ac)DYSVTANSK (SEQ ID NO: 317) (L-lactate dehydrogenase B chain [82], LDHB, drug:DMSO): 0.00 log 2
L/H ratio of acetylated peptide (LCK(ac)YIYAK (SEQ ID NO: 390), Eukaryotic translation initiation factor 3 subunit C [553], EIF3C, EIF3CL): 0.45 log 2

Source: US20140357512A1, “HISTONE DEACETYLASE (HDAC) BIOMARKERS IN MULTIPLE MYELOMA” (priority 2013, published 2014)
